# Literature values in article PMC3289745 (Peptides, 2011).
# Tested on: conscious male rats
# Details: central injection of neuronostatin; 30 minutes post-injection
substance,measurement,value
neuronostatin,increase in plasma AVP levels relative to saline-injected controls,2–3 times
